# In patent US20150183791A1, “IMIDAZO[1,2-b]PYRIDAZINE-BASED COMPOUNDS, COMPOSITIONS COMPRISING THEM, AND METHODS OF THEIR USE” (LEXICON PHARMACEUTICALS, INC., priority 2013, published 2015):
# Target: AAK1 (full-length human protein) (Homo sapiens, UniProt Q2M2I8)
# Experiment: P81 filter plate assay
# Type: biochemical
# Protocol: Compounds were serially diluted into a Labcyte LDV plate (Labcyte, cat# LP-0200) using a Mutiprobe (PerkinElmer) and Biomek FX (Beckman Coulter) so that the highest compound concentration was at 96 μM. Compounds were then pinged (75 nL per well) into a Greiner 384-well reaction plate (Greiner, #781076) using an ECHO 550 Liquid Handler (Labcyte). A total of 12 μl reaction buffer (IMAP buffer containing Tween and DTT, from Molecular Devices) was then added to each well of columns 1 and 13 for the negative controls and 12 μl of 2×AAK1 (0.2 nM full-length human protein, NCBI accession no. NP_055726.2) was added to the remaining wells. Enzyme was then pre-incubated with compound for 10 minutes at room temperature. Reactions were initiated upon Minitrak (PerkinElmer) addition of 12 μl substrate mix containing 2× Mu2 (0.2 μM, full length human protein), 2× cold ATP (2 μM), and 1.3 μCi of hot ^33P-ATP. Reactions proceeded for one hour at room temperature. Meanwhile, Millipore 384-well P81 filter plates (Millipore, catalog # MZPHN0 W10) were placed on a plate washer (Zoom ZW, from Titertek) and pre-wet with 50 μl 1% phosphoric acid. Kinase reactions were then stopped upon addition of 24 μl of 2% phosphoric acid to each well and the Minitrak was then used to transfer 40 μl from each well into the pre-wet Millipore 384-well P81 filter plates. Reaction mixtures were incubated for 10 minutes at room temperature in the P81 plates, followed by washing five times with 100 μl/well of 1% phosphoric acid using the Zoom filter washer. The bottom of each filter plate was sealed followed by addition of 20 μl Microscint 40 to each well, sealing the top of the plates with Flashplate cover, and then waiting one hour until reading on the TopCount (Perkin Elmer).
# [1] = 0.2 nM-scale full-length human AAK1, Mu2 substrate, 33P-ATP, one hour at room temperature, class symbols
# [2] = same assay, given as numeric bound instead of class symbol
# Sequence of AAK1 (full-length human protein) (Q2M2I8 1-863 isoform Q2M2I8-2): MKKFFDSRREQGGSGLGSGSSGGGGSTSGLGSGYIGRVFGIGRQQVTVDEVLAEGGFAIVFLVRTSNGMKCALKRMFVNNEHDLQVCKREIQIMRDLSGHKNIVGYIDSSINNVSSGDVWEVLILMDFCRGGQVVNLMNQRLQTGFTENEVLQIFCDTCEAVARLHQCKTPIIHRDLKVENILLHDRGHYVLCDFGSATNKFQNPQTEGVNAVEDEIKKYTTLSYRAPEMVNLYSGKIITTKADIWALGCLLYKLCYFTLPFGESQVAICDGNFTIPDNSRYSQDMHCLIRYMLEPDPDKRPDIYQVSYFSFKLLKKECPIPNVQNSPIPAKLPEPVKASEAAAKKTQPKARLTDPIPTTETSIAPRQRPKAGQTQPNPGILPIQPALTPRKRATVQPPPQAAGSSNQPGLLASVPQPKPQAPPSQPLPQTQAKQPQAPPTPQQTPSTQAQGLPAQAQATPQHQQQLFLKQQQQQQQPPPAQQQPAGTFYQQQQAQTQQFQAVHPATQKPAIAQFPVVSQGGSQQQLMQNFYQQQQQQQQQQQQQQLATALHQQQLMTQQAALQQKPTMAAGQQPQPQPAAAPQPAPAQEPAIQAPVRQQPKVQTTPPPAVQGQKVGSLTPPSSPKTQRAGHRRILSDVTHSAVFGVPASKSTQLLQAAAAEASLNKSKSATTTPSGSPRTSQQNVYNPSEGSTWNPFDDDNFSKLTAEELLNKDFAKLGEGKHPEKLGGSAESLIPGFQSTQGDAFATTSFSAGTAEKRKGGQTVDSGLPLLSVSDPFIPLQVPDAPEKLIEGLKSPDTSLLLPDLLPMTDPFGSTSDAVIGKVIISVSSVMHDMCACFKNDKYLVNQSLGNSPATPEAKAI
Structure (SMILES),IC50 [1],IC50 [2]
"COc1ncccc1-c1cnc2ccc(-c3cnn(C(=O)OC(C)C)c3)nn12 [Isopropyl 4-(3-(2-methoxypyridin-3-yl)imidazo[1,2-b]pyridazin-6-yl)-1H-pyrazole-1-carboxylate]",≤ 10 nM,–
"CC(C)C[C@H](N)Cn1ccc(-c2ccc3ncc(Br)n3n2)cc1=O [(S)-1-(2-Amino-4-methylpentyl)-4-(3-bromoimidazo[1,2-b]pyridazin-6-yl)pyridin-2(1H)-one]",100 to 1000 nM,–
"CC(C)(C)Cn1cc(-c2ccc3ncc(Cl)n3n2)cn1 [3-Chloro-6-(1-neopentyl-1H-pyrazol-4-yl)imidazo[1,2-b]pyridazine]",10 to 100 nM,–
"COc1cnccc1-c1cnc2ccc(-c3cccc(C(=O)CCC(C)C)c3)nn12 [1-(3-(3-(3-Methoxypyridin-4-yl)imidazo[1,2-b]pyridazin-6-yl)phenyl)-4-methylpentan-1-one]",≤ 10 nM,–
"Cc1cnc2ccc(-c3ccn(CCC(C)(C)C)c(=O)c3)nn12 [1-(3,3-Dimethylbutyl)-4-(3-methylimidazo[1,2-b]pyridazin-6-yl)pyridin-2(1H)-one]",10 to 100 nM,–
"COc1nc(C)ccc1-c1cnc2ccc(-c3ccn(CCC(C)C)c(=O)c3)nn12 [1-isopentyl-4-(3-(2-methoxy-6-methylpyridin-3-yl)imidazo[1,2-b]pyridazin-6-yl)pyridin-2(1H)-one]",≤ 10 nM,–
"CC(C)(C)Cn1cc(-c2ccc3nccn3n2)cn1 [6-(1-Neopentyl-1H-pyrazol-4-yl)imidazo[1,2-b]pyridazine]",–,> 300 nM
"CC(C)(C)Cn1cc(-c2ccc3ncc(Br)n3n2)cn1 [3-Bromo-6-(1-neopentyl-1H-pyrazol-4-yl)imidazo[1,2-b]pyridazine]",10 to 100 nM,–
"CC(C)CCn1cc(-c2ccc3nccn3n2)cn1 [6-(1-Isopentyl-1H-pyrazol-4-yl)imidazo[1,2-b]pyridazine]",100 to 1000 nM,–
"COc1ncccc1-c1cnc2ccc(-c3ccn(CCC(C)C)c(=O)c3)nn12 [1-isopentyl-4-(3-(2-methoxypyridin-3-yl)imidazo[1,2-b]pyridazin-6-yl)pyridin-2(1H)-one]",≤ 10 nM,–
"COc1ncc(F)cc1-c1cnc2ccc(-c3ccn(CCC(C)C)c(=O)c3)nn12 [4-(3-(5-Fluoro-2-methoxypyridin-3-yl)imidazo[1,2-b]pyridazin-6-yl)-1-isopentylpyridin-2(1H)-one]",≤ 10 nM,–
"CC(C)CCn1cc(-c2ccc3ncc(Br)n3n2)cn1 [3-Bromo-6-(1-isopentyl-1H-pyrazol-4-yl)imidazo[1,2-b]pyridazine]",≤ 10 nM,–
"COc1ncccc1-c1cnc2ccc(-c3cnn(CC(C)(C)C)c3)nn12 [3-(2-Methoxypyridin-3-yl)-6-(1-neopentyl-1H-pyrazol-4-yl)imidazo[1,2-b]pyridazine]",≤ 10 nM,–
"COc1ncccc1-c1cnc2ccc(-c3ccn(C[C@@H](N)CC(C)C)c(=O)c3)nn12 [(S)-1-(2-Amino-4-methylpentyl)-4-(3-(2-methoxypyridin-3-yl)imidazo[1,2-b]pyridazin-6-yl)pyridin-2(1H)-one]",10 to 100 nM,–
"COc1ncccc1-c1cnc2ccc(-c3cnn(CCC(C)C)c3)nn12 [6-(1-Isopentyl-1H-pyrazol-4-yl)-3-(2-methoxypyridin-3-yl)imidazo[1,2-b]pyridazine]",≤ 10 nM,–
"CC(C)C[C@H](N)Cn1ccc(-c2ccc3nccn3n2)cc1=O [(S)-1-(2-Amino-4-methylpentyl)-4-(imidazo[1,2-b]pyridazin-6-yl)pyridin-2(1H)-one]",–,> 300 nM
"CC(C)CCn1ccc(-c2ccc3ncc(Br)n3n2)cc1=O [4-(3-Bromoimidazo[1,2-b]pyridazin-6-yl)-1-isopentylpyridin-2(1H)-one]",≤ 10 nM,–
"Cc1cnc2ccc(-c3ccn(CCC(C)C)c(=O)c3)nn12 [1-Isopentyl-4-(3-methylimidazo[1,2-b]pyridazin-6-yl)pyridin-2(1H)-one]",≤ 10 nM,–
"CC(C)C[C@@H](Cn1ccc(-c2ccc3nccn3n2)cc1=O)N1C(=O)c2ccccc2C1=O [(S)-2-(1-(4-(Imidazo[1,2-b]pyridazin-6-yl)-2-oxopyridin-1(2H)-yl)-4-methylpentan-2-yl)isoindoline-1,3-dione]",–,> 300 nM
